From US11970439B1, “8-(4-chlorobenzylideneamino)naphthalene-1,3-disulfonic acid as an antioxidant compound” (KING FAISAL UNIVERSITY, priority 2023, dated 2024)

Assay: DPPH radical scavenging antioxidant test
Format: biochemical
Details: 517 nm; for Inhibition (radical scavenging inhibition): compound 3 μM in ethanol, 0.2 mL DPPH (0.75 mM), 30 min incubation in the dark
Protocol: The antioxidant properties of the 8-(4-chlorobenzylideneamino)naphthalene-1,3-disulfonic acid were studied by adding 0.2 mL DPPH (0.75 mM)) to compound 8-(4-chlorobenzylideneamino)naphthalene-1,3-disulfonic acid (III) (3 μM) in ethanol. After 30 min of incubation in the dark, the absorbance was read against a blank at 517 nm. Ascorbic acid (vitamin C) was used as standard antioxidants (positive control). A blank sample was prepared by 0.2 ml of DPPH in 3 ml ethanol. A negative control sample was run using ethanol instead of the sample. The radical scavenging inhibition was calculated using the following equation: […]

Compound	antioxidant potential in DPPH in vitro test (in words) (DPPH, vitamin C as positive control)	Inhibition (radical scavenging inhibition)
O=S(=O)(O)c1cc(S(=O)(=O)O)c2c(/N=C/c3ccc(Cl)cc3)cccc2c1 [Product III, 8-(4-chlorobenzylideneamino)naphthalene-1,3-disulfonic acid]	high potential as an antioxidant compared to vitamin C	50%
O=C1O[C@H]([C@@H](O)CO)C(O)=C1O [vit c, Ascorbic acid, reference compound]	–	74%
